Experimental data published in patent US10821160B2, “L-asparaginase variants and fusion proteins with reduced L-glutaminase activity and enhanced stability” (priority 2016, dated 2020).
“And” between values parts separate entries of the source, which are not always exact repeats. Equal values may be shown once.

Columns and labels:
[1] = test system: NC(=O)CC[C@H](N)C(=O)O; assay: purified protein, by the assay type; details: other: Gln, 37° C, pH 8.5
[2] = test system: NC(=O)C[C@H](N)C(=O)O; assay: purified protein, by the assay type; format: biochemical, Erwinia chrysanthemi; details: other: Asn, 37° C
[3] = test system: NC(=O)C[C@H](N)C(=O)O; assay: purified protein, by the assay type; details: other: Asn, 37° C
[4] = biological target: T1, Erwinia chrysanthemi L-asparaginase (ErA) variant A31I-E63Q (ErA-DM2), SEQ ID NO:4 (Dickeya chrysanthemi, UniProt P06608, A52I/E84Q); format: biochemical
T1 construct: lacking the first 21-amino acid residue signal peptide; His6-SUMO (yeast Smt3p) (N, cleaved yes); made in house; host or cells: E. coli BL21(DE3) C41
Experimental: (§1) A conventional assay for determining L-glutaminase activity (Gella & Pascual (1982) Anal. Biochem. 127:322-5) was used with some modifications. The purified enzyme was mixed into a solution containing 50 mM Tris-HCl pH 8.5, 1 mg/mL BSA, 7 U GDH (Glutamate dehydrogenase, Sigma-Aldrich), 3 mM INT (Iodonitrotetrazolium chloride, Sigma-Aldrich), 100 mM PMS (Phenazine methosulfate, Sigma-Aldrich), and 100 mM NAD+. […] The latter, in the presence of NAD+ and under the catalysis of GDH, is broken further into α-ketoglutarate and ammonia. NADH produced by this second reaction, together with INT serve as inputs to the third reaction, where the formation of INT-formazan under the catalysis of PMS can be followed spectrophotometrically as an increase in absorbance at 500 nm. All reactions were carried out at 37° C. 1 IU of enzyme is defined as the amount of enzyme used to produce 1 μmole of product in 1 minute at 37° C.
(§2) Using colorimetric enzyme-coupled assays, L-asparaginase and L-glutaminase activity of the enzymes was determined.

[5] = biological target: T2, Erwinia chrysanthemi L-asparaginase (ErA) variant E63Q-S254N (ErA-DM1), SEQ ID NO:3 (Dickeya chrysanthemi, UniProt P06608, E84Q/S275N); format: biochemical
T2 construct: lacking the first 21-amino acid residue signal peptide; His6-SUMO (yeast Smt3p) (N, cleaved yes); made in house; host or cells: E. coli BL21(DE3) C41
Experimental: as §1, §2

[6] = biological target: T3, Erwinia chrysanthemi L-asparaginase (ErA) variant E63Q-S254Q (ErA-DM3), SEQ ID NO:5 (Dickeya chrysanthemi, UniProt P06608, E84Q/S275N); assay: L-glutaminase activity, GDH/INT coupled assay; format: biochemical; details: Gln, head prints 50 mM
T3 construct: lacking the first 21-amino acid residue signal peptide; His6-SUMO (yeast Smt3p) (N, cleaved yes); made in house; host or cells: E. coli BL21(DE3) C41
Experimental: as §1, §2

[7] = biological target: T4, Erwinia chrysanthemi L-asparaginase (ErA) variant E63Q-S254Q (ErA-DM3), SEQ ID NO:5 (Dickeya chrysanthemi, UniProt P06608, E84Q/S275Q); assay: L-glutaminase activity, GDH/INT coupled assay; format: biochemical
T4 construct: lacking the first 21-amino acid residue signal peptide; His6-SUMO (yeast Smt3p) (N, cleaved yes); made in house; host or cells: E. coli BL21(DE3) C41
Experimental: as §1, §2

[8] = test system: Erwinia chrysanthemi L-asparaginase (ErA) variant E63Q-S254Q (ErA-DM3), SEQ ID NO:5; assay: L-glutaminase activity, GDH/INT coupled assay; format: biochemical; details: Gln, 37° C
Experimental: as §1, §2

[9] = biological target: T5, Erwinia chrysanthemi L-asparaginase, wild type (ErA-WT), SEQ ID NO:1 (Dickeya chrysanthemi, UniProt P06608); assay: L-glutaminase activity, GDH/INT coupled assay; format: biochemical
T5 construct: lacking the first 21-amino acid residue signal peptide; His6-SUMO (yeast Smt3p) (N, cleaved yes); made in house; host or cells: E. coli BL21(DE3) C41
Experimental: as §1, §2

[10] = biological target: T6, Escherichia coli L-asparaginase, wild type (EcA-WT), SEQ ID NO:9 (Escherichia coli, UniProt P00805); assay: L-glutaminase activity, GDH/INT coupled assay; format: biochemical
T6 sequence (P00805 with tags, fused parts or gaps): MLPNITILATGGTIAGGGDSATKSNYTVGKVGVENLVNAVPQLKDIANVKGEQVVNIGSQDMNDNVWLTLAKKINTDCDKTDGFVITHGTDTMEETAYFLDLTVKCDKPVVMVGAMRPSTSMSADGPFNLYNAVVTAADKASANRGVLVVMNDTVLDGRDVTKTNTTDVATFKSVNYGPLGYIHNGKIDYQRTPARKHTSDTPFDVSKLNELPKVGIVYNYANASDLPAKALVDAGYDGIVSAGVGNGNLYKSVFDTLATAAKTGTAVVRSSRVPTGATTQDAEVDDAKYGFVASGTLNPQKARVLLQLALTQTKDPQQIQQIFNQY
Experimental: as §1

[11] = biological target: Erwinia chrysanthemi L-asparaginase (ErA) variant A31I-E63Q-S254Q (ErA-TM2), SEQ ID NO:6 (Dickeya chrysanthemi, UniProt P06608, A52I/E84Q/S275Q)
Experimental: as §1

[12] = biological target: T7, Erwinia chrysanthemi L-asparaginase (ErA) variant A31I-E63Q-S254N (ErA-TM1), SEQ ID NO:7 (Dickeya chrysanthemi, UniProt P06608, A52I/E84Q/S275N); format: biochemical
T7 construct: lacking the first 21-amino acid residue signal peptide; His6-SUMO (yeast Smt3p) (N, cleaved yes); made in house; host or cells: E. coli BL21(DE3) C41
Experimental: as §1

[13] = test system: Erwinia chrysanthemi L-asparaginase (ErA) variants ErA-E63Q, ErA-DM2 (A31I-E63Q) and ErA-DM1 (E63Q-S254N); assay: L-glutaminase activity of the mutants as a group vs ErA-WT; format: biochemical
Experimental: as §1, §2

[14] = biological target: Erwinia chrysanthemi L-asparaginase (ErA) variant E63Q (ErA-E63Q), SEQ ID NO:2 (Dickeya chrysanthemi, UniProt P06608, E84Q); format: biochemical; parameters: lacking the first 21-amino acid residue signal peptide; His6-SUMO (yeast Smt3p) (N, cleaved yes); made in house; host or cells: E. coli BL21(DE3) C41
Experimental: as §1, §2

[15] = test system: NC(=O)C[C@H](N)C(=O)O; assay: purified protein, by the assay type; format: biochemical, Erwinia chrysanthemi; details: other: Asn, 37° C; remark: listed apart in the source
Experimental: (§3) L-asparaginase activity was determined using a continuous spectroscopic enzyme-coupled assay as previously described (Schalk, et al. (2014) J. Biol. Chem. 289:33175-33186). In brief, the assay measures the production of L-aspartate through the 1:1 oxidation of reduced NADH. The conversion of NADH to NAD^+ was measured spectrophotometrically as a decrease in absorbance at 340 nm at 37° C. All measurements were taken in triplicate. Rates were fit to the Michaelis-Menten equation using SIGMAPLOT software (Systat Software Inc).
Using colorimetric enzyme-coupled assays, L-asparaginase and L-glutaminase activity of the enzymes was determined. […] Seventeen of the 18 mutants had reduced L-glutaminase activity (Table 7). However, for most of the mutants, this decrease was concomitant with a decline in the L-asparaginase activity. Using the criteria of (i) ≥60% retained L-asparaginase activity (relative to Erw-WT) and (ii) ≤5% L-glutaminase versus and L-asparaginase activity, mutants ErA-E63Q, ErA-S254P, ErA-A31I+E63Q and ErA-S254N+E63Q were selected for further study.

[16] = substrate: NC(=O)C[C@H](N)C(=O)O; assay: L-asparaginase activity, continuous spectroscopic enzyme-coupled assay; format: biochemical, Escherichia coli; details: other: Asn, 37° C
Experimental: as §3
The parameters that define the asparagine-depleting power of such enzyme drugs are of significance. […] Enzymologists often combine these two parameters into a single value (kcat/Km) that is thought to represent the efficiency of the enzyme. […] Therefore, the ErA enzyme was selected for developing a variant with low L-glutaminase activity.

[17] = substrate: NC(=O)CC[C@H](N)C(=O)O; assay: L-glutaminase activity, GDH/INT coupled assay; format: biochemical, Escherichia coli; details: other: Gln, 37° C, pH 8.5
Experimental: as §1

Molecule: Erwinia chrysanthemi L-asparaginase (ErA) variant A31I-E63Q-S254Q (ErA-TM2), SEQ ID NO:6 (Dickeya chrysanthemi; A52I/E84Q/S275Q)
- Km [1]: 47.5 ± 0.7 mM

Molecule: Erwinia chrysanthemi L-asparaginase (ErA) variant E63Q-S254N (ErA-DM1), SEQ ID NO:3 (Dickeya chrysanthemi; E84Q/S275N)
- Km [2]: 0.185 mM

Molecule: Erwinia chrysanthemi L-asparaginase (ErA) variant E63Q (ErA-E63Q), SEQ ID NO:2 (Dickeya chrysanthemi; E84Q)
- Km [3]: 0.051 mM

Molecule: NC(=O)CC[C@H](N)C(=O)O [Gln, L-glutamine]
- kobs @100 μM ([4]; 100 μM Gln): 0.105 s⁻¹
- kobs @0.5 mM ([4]; 0.5 mM Gln): 0.83 s⁻¹
- kobs @500 μM ([4]; 500 μM Gln): 0.73 s⁻¹
- kobs @1 mM ([4]; 1 mM Gln): 2.20 s⁻¹
- Km ([4]; Gln, 37° C): 2.73 ± 0.02 mM
- kcat ([4]; Gln, 37° C): 6.01 ± 0.13 s⁻¹
- kcat/Km ([4]; Gln, 37° C): 2.2 × 10^−3 sec^−1μM^−1
- kobs @100 μM ([5]; 100 μM Gln): 0.019 s⁻¹
- kobs @0.5 mM ([5]; 0.5 mM Gln): 0.11 s⁻¹
- kobs @500 μM ([5]; 500 μM Gln): 0.07 s⁻¹
- kobs @1 mM ([5]; 1 mM Gln): 0.18 s⁻¹
- Km ([5]; Gln, 37° C): 15.8 ± 0.3 mM
- kcat ([5]; Gln, 37° C): 2.93 ± 0.03 s⁻¹
- kcat/Km ([5]; Gln, 37° C): 0.19 × 10^−3 sec^−1μM^−1
- kobs @ 50 mM [6]: 0.11 s⁻¹
- kobs @100 μM ([7]; 100 μM Gln): 0.009 s⁻¹
- kobs @0.5 mM ([7]; 0.5 mM Gln): 0.0226 s⁻¹
- kobs @500 μM ([7]; 500 μM Gln): 0.02 s⁻¹
- kobs @1 mM ([7]; 1 mM Gln): 0.19 s⁻¹
- Km [8]: 84 mM
- kobs @100 μM ([9]; 100 μM Gln): 6.118 s⁻¹
- kobs @0.5 mM ([9]; 0.5 mM Gln): 15.87 s⁻¹
- kobs @500 μM ([9]; 500 μM Gln): 15.06 s⁻¹
- kobs @1 mM ([9]; 1 mM Gln): 19.22 s⁻¹
- kcat/Km ([9]; Gln, 37° C): 74.56 × 10^−3 sec^−1μM^−1
- kobs @ 50 mM ([9]; Gln, head prints 50 mM): 15.87 s⁻¹
- kobs @100 μM ([10]; 100 μM Gln): 0.047 s⁻¹
- kobs @0.5 mM ([10]; 0.5 mM Gln): 0.22 s⁻¹
- kobs @500 μM ([10]; 500 μM Gln): 0.22 s⁻¹
- kobs @1 mM ([10]; 1 mM Gln): 0.36 s⁻¹
- kobs @ 50 mM ([10]; Gln): 0.22 s⁻¹
- kcat/Km ([10]; Gln, 37° C): 0.64 × 10^−3 sec^−1μM^−1
- kobs @100 μM ([11]; 100 μM Gln): 0.0045 s⁻¹
- kobs @0.5 mM ([11]; 0.5 mM Gln): 0.0083 s⁻¹
- kobs @500 μM ([11]; 500 μM Gln): 0.0083 s⁻¹
- Km ([11]; Gln, 37° C): 47.5 mM
- kcat ([11]; Gln, 37° C): 1.836 ± 0.11 s⁻¹
- kcat/Km ([11]; Gln, 37° C): 0.04 × 10^−3 sec^−1μM^−1
- kobs @0.5 mM ([12]; 0.5 mM Gln): 0.11 s⁻¹
- kobs @1 mM ([12]; 1 mM Gln): 0.33 s⁻¹
- Km ([12]; Gln, 37° C): 28.2 mM
- kcat ([12]; Gln, 37° C): 5.6 ± 0.2 s⁻¹
- kcat/Km ([12]; Gln, 37° C): 0.19 × 10^−3 sec^−1μM^−1
- observed L-glutaminase rate reduced by ([13]; 0.5 mM Gln, relative to ErA-WT): 95-99%
- L-glutaminase efficiency (kcat/Km) reduced by ([13]; Gln, vs ErA-WT): 20-400 fold
- increased Km (fold higher compared ErA-WT) ([13]; Gln, vs ErA-WT): 8-44 fold
- reduced kcat (fold lower compared ErA-WT) ([13]; Gln, vs ErA-WT): 3-9 fold
- kobs @100 μM ([14]; 100 μM Gln): 0.098 s⁻¹
- kobs @0.5 mM ([14]; 0.5 mM Gln): 0.74 s⁻¹
- kobs @500 μM ([14]; 500 μM Gln): 0.72 s⁻¹
- kobs @1 mM ([14]; 1 mM Gln): 2.16 s⁻¹
- Km ([14]; Gln, 37° C): 3.86 ± 0.23 mM
- kcat ([14]; Gln, 37° C): 8.33 ± 0.16 s⁻¹
- kcat/Km ([14]; Gln, 37° C): 3.68 sec^−1mM^−1 and 3.68 × 10^−3 sec^−1μM^−1

Molecule: Erwinia chrysanthemi L-asparaginase (ErA) variant A31I-E63Q (ErA-DM2), SEQ ID NO:4 (Dickeya chrysanthemi; A52I/E84Q)
- Km [15]: 0.037 mM

B1: Escherichia coli L-asparaginase, wild type (EcA-WT), SEQ ID NO:9 (Escherichia coli K-12) (protein)
chain: MLPNITILATGGTIAGGGDSATKSNYTVGKVGVENLVNAVPQLKDIANVKGEQVVNIGSQDMNDNVWLTLAKKINTDCDKTDGFVITHGTDTMEETAYFLDLTVKCDKPVVMVGAMRPSTSMSADGPFNLYNAVVTAADKASANRGVLVVMNDTVLDGRDVTKTNTTDVATFKSVNYGPLGYIHNGKIDYQRTPARKHTSDTPFDVSKLNELPKVGIVYNYANASDLPAKALVDAGYDGIVSAGVGNGNLYKSVFDTLATAAKTGTAVVRSSRVPTGATTQDAEVDDAKYGFVASGTLNPQKARVLLQLALTQTKDPQQIQQIFNQY
- Km [16]: 0.015 ± 0.0005 mM
- kcat [16]: 44.4 ± 0.3 s⁻¹
- kcat/Km [16]: 2.96e+06 M⁻¹ s⁻¹
- Km [17]: 1.38 ± 0.09 mM
- kcat [17]: 0.89 ± 0.01 s⁻¹
- kcat/Km [17]: 640 M⁻¹ s⁻¹
